Results: US10899774B2, “IRAK4 modulators” (Genentech, Inc., priority 2017, dated 2021)

These compounds were tested against human IRAK4 (Homo sapiens (Human), UniProt Q9NWZ3) (assay: IRAK4 kinase inhibition, Transcreener fluorescence polarization (ADP detection)). Details: recombinant full-length His6-IRAK4; 1.25 nM IRAK4; 125 μM ATP; 90 min; ATP Km 642 μM.
Format: biochemical
Description: Compounds were assayed for inhibition of human IRAK4 and IRAK1 catalytic activity using recombinant enzyme produced from insect cells. Full-length IRAK4 protein, carrying an N-terminal His6-Tag, was obtained from Life Technologies (Carlsbad, Calif., USA). The IRAK1 construct was produced internally and was comprised of IRAK1 residues Arg194 to Ser712, preceded by an NH2-terminal His6 tag and the coding sequence for glutathione-S-transferase.
Kinase activities were assayed using the Transcreener-Fluorecescence polarization platform (BelBrook Labs, Madison, Wis., USA) that measures amounts of the reaction product, ADP.
384 well assay plates spotted with compound received 4 μl of a 2× substrate (ATP+peptide) mix in reaction buffer, followed by 4 μl of 2× enzyme diluted in reaction buffer.

Chain of human IRAK4 (Q9NWZ3 whole entry): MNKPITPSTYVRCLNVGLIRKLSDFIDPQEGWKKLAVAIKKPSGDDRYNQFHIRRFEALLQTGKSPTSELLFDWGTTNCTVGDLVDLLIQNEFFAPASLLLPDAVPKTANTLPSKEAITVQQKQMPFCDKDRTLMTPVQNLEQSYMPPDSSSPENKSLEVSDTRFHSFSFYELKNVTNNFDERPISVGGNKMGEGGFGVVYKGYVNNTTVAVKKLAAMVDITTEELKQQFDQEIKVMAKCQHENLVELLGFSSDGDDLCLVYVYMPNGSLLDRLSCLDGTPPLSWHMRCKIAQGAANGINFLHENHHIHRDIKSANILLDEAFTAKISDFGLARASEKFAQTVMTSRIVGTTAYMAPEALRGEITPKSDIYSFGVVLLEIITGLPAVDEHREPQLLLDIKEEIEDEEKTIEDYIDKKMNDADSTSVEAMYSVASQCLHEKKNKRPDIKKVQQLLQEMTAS

| SMILES | Ki |
| --- | --- |
| Cn1ccc(C(=O)Nc2cc3c(cc2N2CCOCC2)O[C@](C)(CO)C3)n1 (single isomer, unassigned) [Example 16] | 48 nM |
| Cn1ccc(C(=O)Nc2cc3c(cc2N2CCOCC2)O[C@@](C)(CO)C3)n1 (single isomer, unassigned) [Example 17] | 120 nM |
| C[C@@]1(CO)Cc2cc(NC(=O)c3ccc4cccnn34)c(N3CCOCC3)cc2O1 (single isomer, unassigned) [Example 18] | 3.4 nM |
| C[C@]1(CO)Cc2cc(NC(=O)c3ccc4cccnn34)c(N3CCOCC3)cc2O1 (single isomer, unassigned) [Example 19] | 21 nM |
| C[C@@]1(CO)Cc2cc(NC(=O)c3ccc4cncnn34)c(N3CCOCC3)cc2O1 (single isomer, unassigned) [Example 23] | 3.6 nM |
| C[C@]1(CO)Cc2cc(NC(=O)c3ccc4cncnn34)c(N3CCOCC3)cc2O1 (single isomer, unassigned) [Example 24] | 7.7 nM |
| Cn1nnc2c(C(=O)Nc3cc4c(cc3N3CCOCC3)O[C@@](C)(CO)C4)cncc21 (single isomer, unassigned) [Example 67] | 180 nM |
| Cn1nnc2c(C(=O)Nc3cc4c(cc3N3CCOCC3)O[C@](C)(CO)C4)cncc21 (single isomer, unassigned) [Example 68] | 70 nM |
| C[C@]1(CO)Cc2cc(NC(=O)c3csc4cc(Cl)cnc34)c(N3CCOCC3)cc2O1 (stereo in doubt) [Example 56, (R)-6-Chloro-N-(2-(hydroxymethyl)-2-methyl-6-morpholino-2,3-dihydrobenzofuran-5-yl)thieno[3,2-b]pyridine-3-carboxamide] | 37 nM |
| C[C@@]1(CO)Cc2cc(NC(=O)c3csc4cc(Cl)cnc34)c(N3CCOCC3)cc2O1 (stereo in doubt) [Example 57, (S)-6-Chloro-N-(2-(hydroxymethyl)-2-methyl-6-morpholino-2,3-dihydrobenzofuran-5-yl)thieno[3,2-b]pyridine-3-carboxamide] | 19 nM |
| CC1(C)Cc2cc(NC(=O)c3cnn4c3OCCC4)c(N3CCOCC3)cc2O1 [Example 1, N-(2,2-Dimethyl-6-morpholino-2,3-dihydrobenzofuran-5-yl)-6,7-dihydro-5H-pyrazolo[5,1-b][1,3]oxazine-3-carboxamide] | 67 nM |
| CC1(C)Cc2cc(NC(=O)c3ccc(O)nn3)c(N3CCOCC3)cc2O1 [Example 2, N-(2,2-Dimethyl-6-morpholino-2,3-dihydrobenzofuran-5-yl)-6-hydroxypyridazine-3-carboxamide] | 30 nM |
| CC1(C)Cc2cc(NC(=O)c3csc4c(N)ncnc34)c(N3CCOCC3)cc2O1 [Example 3, 4-Amino-N-(2,2-dimethyl-6-morpholino-2,3-dihydrobenzofuran-5-yl)thieno[3,2-d]pyrimidine-7-carboxamide] | 13 nM |
| CC1(C)Cc2cc(NC(=O)c3cccc4[nH]nnc34)c(N3CCOCC3)cc2O1 [Example 4, N-(2,2-Dimethyl-6-morpholino-2,3-dihydrobenzofuran-5-yl)-1H-benzo[d][1,2,3]triazole-4-carboxamide] | 7.1 nM |
| Cc1nc(C(=O)Nc2cc3c(cc2N2CCOCC2)OC(C)(C)C3)ccc1C#N [Example 5, 5-Cyano-N-(2,2-dimethyl-6-morpholino-2,3-dihydrobenzofuran-5-yl)-6-methylpicolinamide] | 25 nM |
| Cc1nc(C(=O)Nc2cc3c(cc2N2CCOCC2)OC(C)(C)C3)cs1 [Example 6, N-(2,2-Dimethyl-6-morpholino-2,3-dihydrobenzofuran-5-yl)-2-methylthiazole-4-carboxamide] | 38 nM |
| Cc1cncc(C(=O)Nc2cc3c(cc2N2CCOCC2)OC(C)(C)C3)n1 [Example 7, N-(2,2-Dimethyl-6-morpholino-2,3-dihydrobenzofuran-5-yl)-6-methylpyrazine-2-carboxamide] | 43 nM |
| CC1(C)Cc2cc(NC(=O)c3cccc(F)n3)c(N3CCOCC3)cc2O1 [Example 8, N-(2,2-Dimethyl-6-morpholino-2,3-dihydrobenzofuran-5-yl)-6-fluoropicolinamide] | 45 nM |
| CC1(C)Cc2cc(NC(=O)c3ccnc(S(C)(=O)=O)n3)c(N3CCOCC3)cc2O1 [Example 9, N-(2,2-Dimethyl-6-morpholino-2,3-dihydrobenzofuran-5-yl)-2-(methylsulfonyl)pyrimidine-4-carboxamide] | 530 nM |
| CC1(C)Cc2cc(NC(=O)c3cc4ccncc4o3)c(N3CCOCC3)cc2O1 [Example 10, N-(2,2-Dimethyl-6-morpholino-2,3-dihydrobenzofuran-5-yl)furo[2,3-c]pyridine-2-carboxamide] | 27 nM |

| SMILES | Ki |
| --- | --- |
| CC1(C)Cc2cc(NC(=O)c3cnccn3)c(N3CCOCC3)cc2O1 [Example 11, N-(2,2-Dimethyl-6-morpholino-2,3-dihydrobenzofuran-5-yl)pyrazine-2-carboxamide] | 290 nM |
| CC1(C)Cc2cc(NC(=O)c3ccc[nH]c3=O)c(N3CCOCC3)cc2O1 [Example 12, N-(2,2-Dimethyl-6-morpholino-2,3-dihydrobenzofuran-5-yl)-2-oxo-1,2-dihydropyridine-3-carboxamide] | 77 nM |
| Cc1cnc(C(=O)Nc2cc3c(cc2N2CCOCC2)OC(C)(C)C3)cn1 [Example 13, N-(2,2-Dimethyl-6-morpholino-2,3-dihydrobenzofuran-5-yl)-5-methylpyrazine-2-carboxamide] | 280 nM |
| CC1(C)Cc2cc(NC(=O)c3cnsn3)c(N3CCOCC3)cc2O1 [Example 14, N-(2,2-Dimethyl-6-morpholino-2,3-dihydrobenzofuran-5-yl)-1,2,5-thiadiazole-3-carboxamide] | 340 nM |
| CC1(C)Cc2cc(NC(=O)c3cnc4cccnn34)c(N3CCOCC3)cc2O1 [Example 15, N-(2,2-Dimethyl-6-morpholino-2,3-dihydrobenzofuran-5-yl)imidazo[1,2-b]pyridazine-3-carboxamide] | 36 nM |
| CC1(C)Cc2cc(NC(=O)c3cccc4[nH]cnc34)c(N3CCOCC3)cc2O1 [Example 20, N-(2,2-Dimethyl-6-morpholino-2,3-dihydrobenzofuran-5-yl)-1H-benzo[d]imidazole-4-carboxamide] | 30 nM |
| CC1(C)Cc2cc(NC(=O)c3cncc4[nH]cnc34)c(N3CCOCC3)cc2O1 [Example 21, N-(2,2-Dimethyl-6-morpholino-2,3-dihydrobenzofuran-5-yl)-3H-imidazo[4,5-c]pyridine-7-carboxamide] | 280 nM |
| CC1(C)Cc2cc(NC(=O)c3cccc(C(F)(F)F)n3)c(N3CCOCC3)cc2O1 [Example 22, N-(2,2-Dimethyl-6-morpholino-2,3-dihydrobenzofuran-5-yl)-6-(trifluoromethyl)picolinamide] | 25 nM |
| Cc1nc2c(C(=O)Nc3cc4c(cc3N3CCOCC3)OC(C)(C)C4)cncc2[nH]1 [Example 25, N-(2,2-Dimethyl-6-morpholino-2,3-dihydrobenzofuran-5-yl)-2-methyl-3H-imidazo[4,5-c]pyridine-7-carboxamide] | 35 nM |
| C[C@H]1COCCN1c1nc(C(=O)Nc2cc3c(cc2N2CCOCC2)OC(C)(C)C3)co1 [Example 26, (S)-N-(2,2-Dimethyl-6-morpholino-2,3-dihydrobenzofuran-5-yl)-2-(3-methylmorpholino)oxazole-4-carboxamide] | 35 nM |
| CC1(C)Cc2cc(NC(=O)c3ccccn3)c(N3CCOCC3)cc2O1 [Example 27, N-(2,2-Dimethyl-6-morpholino-2,3-dihydrobenzofuran-5-yl)picolinamide] | 42 nM |
| CC1(C)Cc2cc(NC(=O)c3c[nH]c4cccnc34)c(N3CCOCC3)cc2O1 [Example 28, N-(2,2-Dimethyl-6-morpholino-3H-benzofuran-5-yl)-1H-pyrrolo[3,2-b]pyridine-3-carboxamide] | 470 nM |
| Cc1ccc(-c2cc3c(cc2NC(=O)c2cnc(C)o2)CC(C)(C)O3)nc1 [Example 29, N-[2,2-Dimethyl-6-(5-methyl-2-pyridyl)-3H-benzofuran-5-yl]-2-methyl-oxazole-5-carboxamide] | 230 nM |
| CC1(C)Cc2cc(NC(=O)c3cccs3)c(N3CCOCC3)cc2O1 [Example 30, N-(2,2-Dimethyl-6-morpholino-2,3-dihydrobenzofuran-5-yl)thiophene-2-carboxamide] | 780 nM |
| Cc1ccc(C(=O)Nc2cc3c(cc2N2CCOCC2)OC(C)(C)C3)o1 [Example 31, N-(2,2-Dimethyl-6-morpholino-2,3-dihydrobenzofuran-5-yl)-5-methylfuran-2-carboxamide] | 23 nM |
| CC1COCCN1c1nc(C(=O)Nc2cc3c(cc2N2CCOCC2)OC(C)(C)C3)cs1 (stereo not drawn) [Example 32, N-(2,2-Dimethyl-6-morpholino-2,3-dihydrobenzofuran-5-yl)-2-(3-methylmorpholino)thiazole-4-carboxamide] | 19 nM |
| Cc1cn(-c2nc(C(=O)Nc3cc4c(cc3N3CCOCC3)OC(C)(C)C4)co2)cn1 [Example 33, N-(2,2-Dimethyl-6-morpholino-2,3-dihydrobenzofuran-5-yl)-2-(4-methyl-1H-imidazol-1-yl)oxazole-4-carboxamide] | 3.7 nM |
| CC1(C)Cc2cc(NC(=O)c3coc(-c4ccncn4)n3)c(N3CCOCC3)cc2O1 [Example 34, N-(2,2-Dimethyl-6-morpholino-2,3-dihydrobenzofuran-5-yl)-2-(pyrimidin-4-yl)oxazole-4-carboxamide] | 17 nM |
| Cc1cc(-c2nc(C(=O)Nc3cc4c(cc3N3CCOCC3)OC(C)(C)C4)co2)ccn1 [Example 35, N-(2,2-Dimethyl-6-morpholino-2,3-dihydrobenzofuran-5-yl)-2-(2-methylpyridin-4-yl)oxazole-4-carboxamide] | 1.4 nM |
